Experimental data published in patent US4789736A, “Complexes of technetium-99m with propylene amine oximes” (Amersham International plc, priority 1985, dated 1988).
Where two headings read alike, the source gives them in different places. One block for each molecule: values may come before it.

Legend:
[1] = Rat biodistribution of Tc-99m complexes of separated diastereoisomers of compound 1 (Example 23); type: in vivo, rats; settings: for % id/organ, Blood / % id/organ, Brain / % id/organ, Liver: rats
Excerpt: The experiment of Example 22 was repeated using the separated diastereoisomers of compound 1. The results are given in the Table below and should be compared to those for compound 1 (the mixture) in the Table in […].

[2] = Clinical comparison of dl and meso diastereoisomers of Compound 1, whole body scanning (Example 25a); type: in vivo, normal volunteer subjects (human); settings: 20 minutes p.i.; mean; human
Procedure: All clinical studies, involving comparisons between the Tc-99m complexes of dl and meso, and d,l and dl stereoisomers of Compound 1 were conducted in normal volunteer subjects at Aberdeen Royal Infirmary.
(a) Comparison of dl and meso diastereoisomers of Compound 1
Data is then taken from area of interest studies employing a whole body scanning device.

[3] = Clinical comparison of d, l and dl stereoisomers of Compound 1 (Example 25b); type: in vivo, normal volunteers (human); settings: 30 minutes p.i.; mean of three studies; human
Procedure: The following table gives the mean of three studies for each stereoisomer, of percentage of injected dose in normal volunteers at 30 minutes p.i.

[4] = Rat biodistribution of Tc-99m complexes from isolated stereoisomers (Example 24); settings: for % id/organ, Blood / % id/organ, Brain / % id/organ, Heart / % id/organ, Liver: (a) diastereoisomers, rats, mean from 3 animals; for difference in brain uptake, dl-isomer versus meso-isomer: see Example 24
Procedure: (§1) 0.1 ml of the Tc-99m complex solution was administered by intravenous injection (lateral tail vein) to each of five or six rats (140-220 g). The injected dose was equivalent to approximately 1 mCi of Tc-99m. Three rats were sacrificed at 2 minutes post injection, and 3 at 1 hour or 2 at 2 hours post injection. At dissection, the organs and blood samples shown in the following table were taken, and assayed for radioactivity. The uptake in each organ or tissue was calculated as a percentage of the total activity recovered.
(§2) Data in Tables (a) and (b) are the mean from 3 animals at each time point.

[5] = rat, in vivo
Procedure: as §1, §2

[6] = Animal biodistribution of Tc-99m complexes of ligands, no separation of stereoisomers (Example 22); type: in vivo, rats; settings: i.v. rats
Procedure: The ratio of diastereoisomers in the Tc-99m complexes used in this experiment is not known.
The results at 2 minutes and 1 hour p.i. are the mean of 3 animals.
The results at 2 hours p.i. are the mean of 2 animals.

SMILES: CC(=NO)[C@H](C)NCC(C)(C)CN[C@@H](C)C(C)=NO (relative stereo) [Compound 1 d1, dl-4,8-Diaza-3,6,6,9-tetramethylundecane-2,10-dione bis oxime]
- % id/organ, Blood ([1]; 2 min p.i.): 11.42 % id/organ
- % id/organ, Brain ([1]; 2 min p.i.): 1.99 % id/organ
- % id/organ, Liver ([1]; 2 min p.i.): 9.42 % id/organ
- % id/organ, Blood ([1]; 1 hour p.i.): 10.17 % id/organ
- % id/organ, Brain ([1]; 1 hour p.i.): 1.90 % id/organ
- % id/organ, Liver ([1]; 1 hour p.i.): 9.25 % id/organ
- difference in brain uptake of the two isomers (factor) ([1]; dl versus meso, the better is the dl-isomer): 2.3
- % injected activity, Bladder + Urine [2]: 2.28 % injected activity
- % injected activity, Brain [2]: 4.22 % injected activity
- % injected activity, Kidneys [2]: 3.50 % injected activity
- % injected activity, Liver [2]: 10.22 % injected activity
- percentage of injected dose, Brain [3]: 4.16 percentage of injected dose
- percentage of injected dose, Kidney [3]: 3.03 percentage of injected dose
- percentage of injected dose, Liver [3]: 10.73 percentage of injected dose
- % id/organ, Blood ([4]; 2 mins pi): 11.0 % id/organ
- % id/organ, Brain ([4]; 2 mins pi): 2.1 % id/organ
- % id/organ, Heart ([4]; 2 mins pi): 1.2 % id/organ
- % id/organ, Liver ([4]; 2 mins pi): 11.3 % id/organ
- % id/organ, Blood ([4]; 1 hr pi): 8.6 % id/organ
- % id/organ, Brain ([4]; 1 hr pi): 1.6 % id/organ
- % id/organ, Heart ([4]; 1 hr pi): 0.7 % id/organ
- % id/organ, Liver ([4]; 1 hr pi): 11.9 % id/organ
- brain retention and brain imaging, dl-isomer versus meso-isomer ([4]; in words): surprisingly superior to the complex of the meso-isomer

SMILES: CC(=NO)[C@H](C)NCCCN[C@@H](C)C(C)=NO (relative stereo) [Compound 2 d1]
- % id/organ, Blood ([4]; 2 mins pi): 10.5 % id/organ
- % id/organ, Brain ([4]; 2 mins pi): 1.8 % id/organ
- % id/organ, Heart ([4]; 2 mins pi): 1.1 % id/organ
- % id/organ, Liver ([4]; 2 mins pi): 11.6 % id/organ
- % id/organ, Blood ([4]; 1 hr pi): 7.8 % id/organ
- % id/organ, Brain ([4]; 1 hr pi): 1.5 % id/organ
- % id/organ, Heart ([4]; 1 hr pi): 0.7 % id/organ
- % id/organ, Liver ([4]; 1 hr pi): 9.4 % id/organ
- difference in brain uptake, dl-isomer versus meso-isomer ([4]; in words): do not show any marked difference in brain uptake

SMILES: CC(=NO)C(C)NCC(C)CNC(C)C(C)=NO (stereo not shown) [Compound 1 1]
- percentage of injected dose, Brain [3]: 4.30 percentage of injected dose
- percentage of injected dose, Kidney [3]: 4.0 percentage of injected dose
- percentage of injected dose, Liver [3]: 8.06 percentage of injected dose
- % id/organ, Blood ([5]; 2 min): 11.0 % id/organ
- % id/organ, Brain ([5]; 2 min): 2.6 % id/organ
- % id/organ, Liver ([5]; 2 min): 9.6 % id/organ
- % id/organ, Blood ([5]; 60 min): 11.1 % id/organ
- % id/organ, Brain ([5]; 60 min): 2.2 % id/organ
- % id/organ, Liver ([5]; 60 min): 7.7 % id/organ

SMILES: CC(=NO)[C@H](C)NCC(C)(C)CN[C@H](C)C(C)=NO [Compound 1 meso, meso-4,8-Diaza-3,6,6,9-tetramethylundecane-2,10-dione bis oxime]
- % id/organ, Blood ([1]; 2 min p.i.): 5.33 % id/organ
- % id/organ, Brain ([1]; 2 min p.i.): 0.78 % id/organ
- % id/organ, Liver ([1]; 2 min p.i.): 26.86 % id/organ
- % id/organ, Blood ([1]; 1 hour p.i.): 3.17 % id/organ
- % id/organ, Brain ([1]; 1 hour p.i.): 0.53 % id/organ
- % id/organ, Liver ([1]; 1 hour p.i.): 24.24 % id/organ
- % injected activity, Bladder + Urine [2]: 0.6 % injected activity
- % injected activity, Brain [2]: 1.85 % injected activity
- % injected activity, Kidneys [2]: 1.3 % injected activity
- % injected activity, Liver [2]: 16.6 % injected activity
- % id/organ, Blood ([4]; 2 mins pi): 5.0 % id/organ
- % id/organ, Brain ([4]; 2 mins pi): 1.1 % id/organ
- % id/organ, Heart ([4]; 2 mins pi): 0.6 % id/organ
- % id/organ, Liver ([4]; 2 mins pi): 19.9 % id/organ
- % id/organ, Blood ([4]; 1 hr pi): 3.1 % id/organ
- % id/organ, Brain ([4]; 1 hr pi): 0.7 % id/organ
- % id/organ, Heart ([4]; 1 hr pi): 0.2 % id/organ
- % id/organ, Liver ([4]; 1 hr pi): 23.7 % id/organ

More lines, main results first:

- % id/organ, Blood ([4]; 2 mins pi): 6.9 % id/organ
- % id/organ, Brain ([4]; 2 mins pi): 1.7 % id/organ
- % id/organ, Heart ([4]; 2 mins pi): 0.6 % id/organ
- % id/organ, Liver ([4]; 2 mins pi): 17.9 % id/organ
- % id/organ, Blood ([4]; 1 hr pi): 2.8 % id/organ
- % id/organ, Brain ([4]; 1 hr pi): 1.4 % id/organ
- % id/organ, Heart ([4]; 1 hr pi): 0.2 % id/organ
- % id/organ, Liver ([4]; 1 hr pi): 20.7 % id/organ
SMILES: CC(=NO)[C@H](C)NCCCN[C@H](C)C(C)=NO [Compound 2 meso]
- difference in brain uptake, dl-isomer versus meso-isomer ([4]; in words): do not show any marked difference in brain uptake

- % id/organ, Blood ([6]; 2 min pi, mean of 3 animals): 6.8 % id/organ
- % id/organ, Brain ([6]; 2 min pi, mean of 3 animals): 1.1 % id/organ
- % id/organ, Heart ([6]; 2 min pi, mean of 3 animals): 0.2 % id/organ
- % id/organ, Liver ([6]; 2 min pi, mean of 3 animals): 27.8 % id/organ
- % id/organ, Blood ([6]; 2 hr pi, mean of 2 animals): 2.1 % id/organ
- % id/organ, Brain ([6]; 2 hr pi, mean of 2 animals): 0.7 % id/organ
- % id/organ, Heart ([6]; 2 hr pi, mean of 2 animals): 0.1 % id/organ
- % id/organ, Liver ([6]; 2 hr pi, mean of 2 animals): 17.0 % id/organ
SMILES: CCC(NCCCNC(CC)C(C)=NO)C(C)=NO (stereo not shown) [Compound 3, 4,8-Diaza-3,9-diethylundecane-2,10-dione bis oxime]

- % id/organ, Blood ([6]; 2 min pi, mean of 3 animals): 13.4 % id/organ
- % id/organ, Brain ([6]; 2 min pi, mean of 3 animals): 1.6 % id/organ
- % id/organ, Liver ([6]; 2 min pi, mean of 3 animals): 15.6 % id/organ
- % id/organ, Blood ([6]; 1 hr pi, mean of 3 animals): 5.7 % id/organ
- % id/organ, Brain ([6]; 1 hr pi, mean of 3 animals): 1.5 % id/organ
- % id/organ, Liver ([6]; 1 hr pi, mean of 3 animals): 12.7 % id/organ
SMILES: CCC(=NO)C(C)NCCCNC(C)C(CC)=NO (stereo not shown) [Compound 4, 5,9-Diaza-4,10-dimethyltridecane-3,11-dione bis oxime]
